Data set [1] is described as follows: Polymorphic stability on storage. It is filed as physicochemical.
The conditions of data set [2]: form A, prior art references (EP1020454, US 7,361,676); cited from earlier work.
Data set [3] is described as follows: Solubility determination of form I and form A in methanol/water (1:1 v/v), UV-spectrophotometry at 314 nm. The format is physicochemical. The conditions noted are these: MeOH/H2O 50%:50% v/v, 5 to 180 min, FIG. 8. The method, then: 25 mg of Febuxostat form I or form A, obtained according to the procedure described in EP1020454 were stirred in a mixture of 20 ml of methanol and water (1:1 v/v). 1 ml of the suspension was withdrawn from each suspension within a time range of 5 to 180 min with the aid of a volumetric pipette and filtered. The filtrate was diluted to 25 ml with a 50% (v/v) methanol/water mixture and the concentration was determined by UV-spectrophotometry at 314 nm (apparatus: Shimadzu UV 1800).
A calibration curve was determined based on a series of known concentrations in the same solvent system.

Data set [4] is described as follows: Kinetics of conversion to hemihydrate G in a mix of methanol and water. The format is physicochemical. An excerpt: The solvent system methanol/water represents a model for the dissolution of solid states of Febuxostat, with the hemihydrate G representing a thermodynamic very stable form with low solubility in aqueous systems.
A short description of data set [5]: Moisture sorption/desorption isotherm (SPS-11 moisture sorption analyzer). It is filed as physicochemical. The conditions noted are these: for hygroscopicity: 0% to 90% RH, 25°C. The method, then: The moisture sorption/desorption isotherms were recorded with a SPS-11 moisture sorption analyzer (MD Messtechnik, Ulm, D). […] The equilibrium condition for each step was set to a mass constancy of ±0.01% over 30 min. The temperature was 25±0.1° C.

The nature of data set [6]: Water content according to Karl Fischer. It is filed as physicochemical. The settings on record: stored at 20° C., ambient pressure, 0% up to 90% relative humidity.

Converted amounts (≈) assume the structure as drawn.

`Cc1nc(-c2ccc(OCC(C)C)c(C#N)c2)sc1C(=O)O` [tert.-amylalcohol solvate, 2-(3-cyano-4-isobutyloxy-phenyl)-4-methyl-5-thiazolecarboxylic acid]: the stability on storage result in data set [1] (ambient conditions in open atmosphere for 5 weeks) is reported as “stable”.

By solubility is commonly meant the concentration that dissolves in the medium under given conditions. Consider `Cc1nc(-c2ccc(OCC(C)C)c(C#N)c2)sc1C(=O)O` [form A, 2-(3-cyano-4-isobutyloxy-phenyl)-4-methyl-5-thiazolecarboxylic acid], for which the solubility in data set [2] is 220 µg/mL (≈ 695 µM).

As for `Cc1nc(-c2ccc(OCC(C)C)c(C#N)c2)sc1C(=O)O` [form I, 2-(3-cyano-4-isobutyloxy-phenyl)-4-methyl-5-thiazolecarboxylic acid], the “increase in solubility compared to form A” value in data set [3] is reported as “approximately 20%”. The “kinetics of conversion to hemihydrate G compared to anhydrate A” value in data set [4] is “slower”. In addition, the hygroscopicity entry in data set [5] (listed as polymorph I) is given as “nonhygroscopic”. Moreover, the “water content (KF)” value in data set [6] is on record as “below 0.1%”. Further, the “polymorphic stability on storage” value in data set [1] (stress conditions, 40° C. for 3 months) was “does not change its polymorphic state properties”.

On to `Cc1nc(-c2ccc(OCC(C)C)c(C#N)c2)sc1C(=O)O` [Form II, 2-(3-cyano-4-isobutyloxy-phenyl)-4-methyl-5-thiazolecarboxylic acid], for which the hygroscopicity entry in data set [5] is reported as “non hygroscopic”. The water uptake result in data set [5] (up to a relative humidity of 90%) is on record as “no significant water uptake”. The “polymorphic stability on storage” value in data set [1] (ambient temperature for 6 weeks) is given as “does not convert to another polymorphic form”.

The values above are taken from US8946441B2, “Polymorphs of an active pharmaceutical ingredient” (Sandoz AG, priority 2010, dated 2015).
